In patent publication US20050054027A1 (priority 2003, published 2005):
Where a name gives a salt, the structure may show the parent alone.

Tested on: TMPRSS6
Assay: Inhibition of TMPRSS6 protease activity (cleavage of fluorogenic substrate Ac-RKFK-acc)
Type: biochemical, human
Conditions: 2 nM enzyme, 15 min preincubation at room temperature, inhibition constant only in FIG. 4
Method: The putative catalytic domain of TMPRSS6 minus the pro region was cloned into pFastBac1 (Invitrogen) from a human cDNA library. […] The vector also contains a C-terminal 6His tag to facilitate purification and an N-terminal honeybee melittin secretion signal. Recombinant bacmid was produced using Bac-to-Bac transposition technology (Invitrogen). Sf9 cells (Invitrogen) were then transfected with recombinant bacmid to produce rAcNPV.
Protease activity of the purified TMPRSS6 was assessed by monitoring the accumulation of the fluorophore 7-amino-4-carbamoylmethylcoumarin (acc) produced by the cleavage of the tetrapeptide substrate Ac-RKFK-acc in assay buffer (50 mM Tris-Cl pH 7.4, 200 mM NaCl, 2 mM CaCl2, 0.01% Tween 20) at 37 C. Data was collected with a Gemini EM plate reader (Molecular Devices) at λex=380 nm and λem=450 nm.
A 1 mM DMSO solution of camostat mesylate was diluted serially 1:3 in DMSO to a final concentration of 5.6 nM. The TMPRSS6 enzyme was diluted in assay buffer to 2 nM. 1 μl of each camostat dilution was added to 98 μl of the enzyme mixture in a 96 well assay plate (Dynex). The plate was incubated for 15 min at room temperature to allow equilibrium to take place between the enzyme and inhibitor. Afterward, 1 μl of a 1 mM solution of a substrate, Ac-RKFK-acc, was added to each well. […] The inhibition constant was calculated using Prism (GraphPad).

CN(C)C(=O)COC(=O)Cc1ccc(OC(=O)c2ccc(NC(=N)N)cc2)cc1 [camostat mesylate]
inhibition of TMPRSS6 protease activity: inhibited
